The record followed here is publication PMC9584352, “Conserved Pib2 regions have distinct roles in TORC1 regulation at the vacuole” (Journal of Cell Science, 2022).

In one series the target is T1, Pib2 442–625 (Saccharomyces cerevisiae, UniProt P53191).
T1 construct: FYVE domain fragment, start of FYVE domain to beginning of tail motif, residues 442-625; purified; predominantly monomeric by SEC-MALS
T1 sequence (P53191 442-625): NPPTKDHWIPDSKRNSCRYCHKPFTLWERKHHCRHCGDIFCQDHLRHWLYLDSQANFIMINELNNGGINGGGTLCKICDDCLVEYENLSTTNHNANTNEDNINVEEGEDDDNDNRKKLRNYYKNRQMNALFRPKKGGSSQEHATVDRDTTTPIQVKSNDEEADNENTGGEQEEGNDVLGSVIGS
As to the kind of experiment: ITC. The series is classed as binding.

A further series deals with T2, Pib2 419–625 (Saccharomyces cerevisiae, UniProt P53191).
T2 construct: FYVE domain fragment starting 23 residues before the FYVE core, residues 419-625; purified; predominantly monomeric by SEC-MALS
T2 sequence (P53191 419-625): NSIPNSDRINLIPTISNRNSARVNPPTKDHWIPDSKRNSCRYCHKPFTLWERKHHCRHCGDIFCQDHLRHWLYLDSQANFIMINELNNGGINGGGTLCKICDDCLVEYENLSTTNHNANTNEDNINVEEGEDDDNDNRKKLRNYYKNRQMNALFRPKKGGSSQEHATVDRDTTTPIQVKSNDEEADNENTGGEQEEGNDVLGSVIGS
As to the kind of experiment: ITC. The series is classed as binding.

The next series addresses T3, EEA1 1347–1411 (Homo sapiens, UniProt Q15075).
T3 construct: purified; largely monomeric by SEC-MALS
T3 sequence (Q15075 1347-1411): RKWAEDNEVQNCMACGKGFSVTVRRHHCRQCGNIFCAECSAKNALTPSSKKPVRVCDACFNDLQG
As to the kind of experiment: ITC. The format is binding.

The target of a further series is T4, EEA1 1287–1411 (Homo sapiens, UniProt Q15075).
T4 construct: purified; largely dimeric by SEC-MALS
T4 sequence (Q15075 1287-1411): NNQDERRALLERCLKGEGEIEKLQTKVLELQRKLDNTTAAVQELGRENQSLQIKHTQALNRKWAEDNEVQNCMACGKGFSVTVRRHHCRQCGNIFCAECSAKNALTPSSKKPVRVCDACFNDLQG
As to the kind of experiment: ITC. The series is classed as binding.

Series [1] deals with the molecule itself. As to the kind of experiment: SEC-MALS; Superdex 75 10/300 in 20 mM Tris-HCl pH 7.4, 150 mM NaCl, 1.93 mM β-mercaptoethanol, room temperature; 500 µl of each protein loaded at 50 or 100 µM as indicated; detectors at 25°C. A general note: In gel filtration, larger molecules generally elute earlier.

Usually Kd stands for the constant that tells how readily two partners part at equilibrium. Higher therefore signals lower affinity. Turning to `CCCC(=O)OC[C@H](COP(=O)(O)O[C@@H]1[C@H](O)[C@H](OP(=O)(O)O)[C@@H](O)[C@H](O)[C@H]1O)OC(=O)CCC` [PI3P diC4], the Kd on Pib2 442–625 is 736 µM.

As to `O=P(O)(O)O[C@@H]1[C@H](O)[C@H](OP(=O)(O)O)[C@@H](O)[C@H](O)[C@H]1O` [inositol 1,3-bisphosphate], the Kd at Pib2 442–625 was 212 µM; on Pib2 419–625 it was over 290 µM; on EEA1 1347–1411, over 300 µM; on EEA1 1287–1411, about 95.8 µM.

B1: EEA1 1287–1411 (domain or fragment, UniProt Q15075 1287-1411, looked up)
chain: NNQDERRALLERCLKGEGEIEKLQTKVLELQRKLDNTTAAVQELGRENQSLQIKHTQALNRKWAEDNEVQNCMACGKGFSVTVRRHHCRQCGNIFCAECSAKNALTPSSKKPVRVCDACFNDLQG
notes: also called longer EEA1 FYVE construct; source: purified
As usually defined, the stoichiometry N is the number of molecules, sites or subunits per partner or assembly. On to B1, for which the “stoichiometry N” value in series [1] was 2.
